Literature values, collected in US20240226071A9, “SUSTAINED RELEASE OSMOTIC-CONTROLLED PHARMACEUTICAL COMPOSITION AND PREPARATION METHOD THEREOF” (Anxo Pharmaceutical Co., Ltd., priority 2022, published 2024).

Q: With `O=C1[C@@H]2[C@H]3CC[C@H](C3)[C@@H]2C(=O)N1C[C@@H]1CCCC[C@H]1CN1CCN(c2nsc3ccccc23)CC1` [lurasidone] as the molecule, how does the solubility in water read?
A: Its solubility in water is “lower than 0.1 mg/mL”.
